# pIC50: −log10 of the molar value.
# Columns and labels:
# Format in all cases: biochemical
# [1] = target: T1, recombinant human FAPα (rhFAPα) (Homo sapiens, UniProt Q12884); assay: FAPα enzymatic exopeptidase (dipeptidase) activity assay, Z-Gly-Pro-AMC; settings: Table 3B; for pIC50: read-out: rhFAP IC50; for inhibition at 1 µM: exopeptidase inhibition at 1 μM test compound, read-out: rhFAPα % exo inh @ 1 μM
# T1 construct: purchased R&S system (so in the source)
# T1 sequence (Q12884 1-760): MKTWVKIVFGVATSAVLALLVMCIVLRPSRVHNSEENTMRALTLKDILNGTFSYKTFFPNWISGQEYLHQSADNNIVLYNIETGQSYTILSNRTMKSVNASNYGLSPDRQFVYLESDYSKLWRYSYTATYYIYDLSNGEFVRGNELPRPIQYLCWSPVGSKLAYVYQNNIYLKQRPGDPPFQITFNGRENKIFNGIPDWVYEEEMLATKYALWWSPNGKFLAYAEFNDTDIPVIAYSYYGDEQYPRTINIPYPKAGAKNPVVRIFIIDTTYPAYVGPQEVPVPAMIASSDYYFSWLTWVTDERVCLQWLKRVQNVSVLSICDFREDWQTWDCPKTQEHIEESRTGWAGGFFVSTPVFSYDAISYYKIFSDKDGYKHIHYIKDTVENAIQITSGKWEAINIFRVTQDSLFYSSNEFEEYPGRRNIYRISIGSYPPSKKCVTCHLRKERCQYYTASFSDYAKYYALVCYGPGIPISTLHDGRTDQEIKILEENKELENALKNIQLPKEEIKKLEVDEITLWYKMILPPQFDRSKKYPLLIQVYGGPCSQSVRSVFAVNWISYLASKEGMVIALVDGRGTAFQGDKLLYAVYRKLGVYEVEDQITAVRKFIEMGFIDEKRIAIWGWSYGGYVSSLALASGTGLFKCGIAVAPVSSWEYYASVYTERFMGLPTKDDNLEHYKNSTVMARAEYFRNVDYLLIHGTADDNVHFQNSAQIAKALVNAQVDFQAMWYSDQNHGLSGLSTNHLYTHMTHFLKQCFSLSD
# [2] = target: T2, recombinant human DPPIV (rhDPPIV) (Homo sapiens, UniProt P27487); assay: DPPIV enzymatic activity assay, H-Gly-Pro-pNA; settings: Table 3B
# T2 construct: purchased R&S system (so in the source)
# T2 sequence (P27487 whole entry): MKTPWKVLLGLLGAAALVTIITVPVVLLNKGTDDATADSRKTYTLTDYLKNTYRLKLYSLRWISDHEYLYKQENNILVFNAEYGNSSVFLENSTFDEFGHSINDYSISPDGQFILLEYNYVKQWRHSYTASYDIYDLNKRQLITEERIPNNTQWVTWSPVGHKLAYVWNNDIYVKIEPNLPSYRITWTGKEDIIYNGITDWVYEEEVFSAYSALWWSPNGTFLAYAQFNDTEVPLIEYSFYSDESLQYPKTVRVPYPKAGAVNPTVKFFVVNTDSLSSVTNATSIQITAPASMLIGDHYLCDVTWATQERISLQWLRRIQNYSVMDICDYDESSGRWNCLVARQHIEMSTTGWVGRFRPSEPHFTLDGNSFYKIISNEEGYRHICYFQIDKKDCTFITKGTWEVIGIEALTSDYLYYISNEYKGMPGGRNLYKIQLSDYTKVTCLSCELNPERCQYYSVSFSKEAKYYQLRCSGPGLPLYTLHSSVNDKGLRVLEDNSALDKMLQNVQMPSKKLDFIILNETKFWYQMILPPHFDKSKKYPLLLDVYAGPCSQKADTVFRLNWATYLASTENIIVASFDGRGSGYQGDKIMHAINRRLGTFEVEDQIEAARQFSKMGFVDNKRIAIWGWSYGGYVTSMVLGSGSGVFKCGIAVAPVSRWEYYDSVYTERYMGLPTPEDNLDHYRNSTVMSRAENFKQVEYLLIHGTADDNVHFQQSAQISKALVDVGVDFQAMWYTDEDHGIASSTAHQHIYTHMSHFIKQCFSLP
# [3] = target: T3, recombinant human DPP9 (rhDPP9) (Homo sapiens, UniProt Q86TI2); assay: DPP9 inhibition assay, 10 ng rhDPP9, Tris-HCl/BSA buffer; settings: Table 3B
# T3 construct: purchased R&S system / R&D systems (both sic) 5419-SE
# T3 sequence (Q86TI2 whole entry): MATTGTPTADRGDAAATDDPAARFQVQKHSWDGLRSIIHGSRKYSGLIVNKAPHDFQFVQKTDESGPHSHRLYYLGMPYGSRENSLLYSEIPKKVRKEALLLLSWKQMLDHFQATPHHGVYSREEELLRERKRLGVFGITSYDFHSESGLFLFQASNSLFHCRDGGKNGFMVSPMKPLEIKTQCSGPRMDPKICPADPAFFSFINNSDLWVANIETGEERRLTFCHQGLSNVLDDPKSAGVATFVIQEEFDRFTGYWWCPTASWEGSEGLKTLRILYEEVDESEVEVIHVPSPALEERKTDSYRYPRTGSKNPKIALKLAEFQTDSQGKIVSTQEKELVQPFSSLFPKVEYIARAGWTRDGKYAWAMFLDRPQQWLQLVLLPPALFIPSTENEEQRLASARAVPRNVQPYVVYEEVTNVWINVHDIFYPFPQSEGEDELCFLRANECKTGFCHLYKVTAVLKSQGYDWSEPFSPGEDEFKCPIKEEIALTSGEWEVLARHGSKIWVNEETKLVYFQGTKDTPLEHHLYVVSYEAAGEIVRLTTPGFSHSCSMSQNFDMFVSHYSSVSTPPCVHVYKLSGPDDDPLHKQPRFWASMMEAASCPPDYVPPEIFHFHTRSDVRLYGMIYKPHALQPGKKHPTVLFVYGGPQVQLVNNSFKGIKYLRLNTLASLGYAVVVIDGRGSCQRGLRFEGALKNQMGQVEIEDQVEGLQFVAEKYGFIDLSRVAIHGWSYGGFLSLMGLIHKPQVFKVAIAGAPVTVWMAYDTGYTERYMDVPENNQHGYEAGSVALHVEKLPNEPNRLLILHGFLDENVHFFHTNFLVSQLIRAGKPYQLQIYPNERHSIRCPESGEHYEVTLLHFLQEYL
# [4] = target: T4, recombinant human PREP (rhPREP) (Homo sapiens, UniProt P48147); assay: PREP enzymatic activity assay, Z-Gly-Pro-AMC; settings: Table 3B
# T4 sequence (P48147 1-710): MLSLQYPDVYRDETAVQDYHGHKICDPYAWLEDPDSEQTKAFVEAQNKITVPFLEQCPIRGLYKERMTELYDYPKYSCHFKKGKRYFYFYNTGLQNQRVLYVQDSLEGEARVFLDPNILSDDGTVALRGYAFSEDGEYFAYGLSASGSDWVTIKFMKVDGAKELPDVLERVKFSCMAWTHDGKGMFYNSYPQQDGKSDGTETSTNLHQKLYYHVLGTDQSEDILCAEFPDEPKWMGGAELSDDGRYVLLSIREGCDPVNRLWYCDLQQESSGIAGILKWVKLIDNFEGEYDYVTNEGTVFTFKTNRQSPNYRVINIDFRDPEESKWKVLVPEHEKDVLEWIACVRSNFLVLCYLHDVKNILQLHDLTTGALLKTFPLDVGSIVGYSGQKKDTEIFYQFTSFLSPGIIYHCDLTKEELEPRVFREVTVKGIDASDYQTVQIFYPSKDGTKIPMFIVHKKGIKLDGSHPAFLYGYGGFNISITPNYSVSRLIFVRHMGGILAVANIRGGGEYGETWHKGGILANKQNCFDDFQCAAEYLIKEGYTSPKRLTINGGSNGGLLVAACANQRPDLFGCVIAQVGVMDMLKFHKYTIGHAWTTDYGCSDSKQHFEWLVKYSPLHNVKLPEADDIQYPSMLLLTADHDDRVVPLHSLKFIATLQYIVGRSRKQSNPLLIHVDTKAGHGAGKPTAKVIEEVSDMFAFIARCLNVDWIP
SMILES,pIC50 [1],inhibition at 1 µM [1] [%],pIC50 [2],pIC50 [3],pIC50 [4]
N#C[C@@H]1CC(F)(F)CN1C(=O)CNC(=O)c1ccnc2ccc(/C=C/c3ccc4cc(Cl)ccc4c3)cc12 [Compound 42],> 6.00,> 50,< 5.00,> 6.00,< 5.00
C/C(=C\c1cnccc1C(=O)NCC(=O)N1CC(F)(F)C[C@H]1C#N)c1ccc(Cl)cc1 [Compound 26],> 6.00,> 50,< 5.00,> 6.00,< 5.00
N#C[C@@H]1CC(F)(F)CN1C(=O)CNC(=O)c1ccncc1C#Cc1ccc(Cl)cc1 [Compound 37],> 6.00,> 50,< 5.00,< 5.00,< 5.00
N#C[C@@H]1CC(F)(F)CN1C(=O)CNC(=O)c1ccncc1/C=C/c1ccc(OC(F)(F)F)cc1 [Compound 33],> 6.00,> 50,< 5.00,> 6.00,< 5.00
N#C[C@@H]1CC(F)(F)CN1C(=O)CNC(=O)c1ccnc2ccc(-c3ccc(C(F)(F)F)cc3)cc12 [Compound 35],> 6.00,> 50,< 5.00,> 6.00,< 5.00
COc1ccc(/C(C)=C/c2cnccc2C(=O)NCC(=O)N2CC(F)(F)C[C@H]2C#N)cc1 [Compound 29],> 6.00,> 50,< 5.00,5.00 to 6.00,< 5.00
CC(C)(C)c1ccc(/C=C/c2ccc3nccc(C(=O)NCC(=O)N4CC(F)(F)C[C@H]4C#N)c3c2)cc1 [Compound 50],> 6.00,> 50,–,5.00 to 6.00,–
C/C(=C\c1cnccc1C(=O)NCC(=O)N1CC(F)(F)C[C@H]1C#N)c1ccc(C(F)(F)F)cc1 [Compound 20],> 6.00,> 50,< 5.00,5.00 to 6.00,< 5.00
Cc1ccc(/C=C/c2ccc3nccc(C(=O)NCC(=O)N4CC(F)(F)C[C@H]4C#N)c3c2)nc1 [Compound 49],> 6.00,> 50,–,> 6.00,–
C[C@@H](Nc1cnccc1C(=O)NCC(=O)N1CC(F)(F)C[C@H]1C#N)c1ccc(F)cc1 [Compound 191],> 6.00,> 50,< 5.00,–,5.00 to 6.00
N#C[C@@H]1CC(F)(F)CN1C(=O)CNC(=O)c1ccncc1/C=C/c1ccc(C(F)(F)F)cc1 [Compound 24],> 6.00,> 50,5.00 to 6.00,5.00 to 6.00,< 5.00
C/C(=C\c1ccc2nccc(C(=O)NCC(=O)N3CC(F)(F)C[C@H]3C#N)c2c1)c1ccc(Cl)cc1 [Compound 39],> 6.00,> 50,< 5.00,> 6.00,< 5.00
C[C@H](Nc1cnccc1C(=O)NCC(=O)N1CC(F)(F)C[C@H]1C#N)c1ccc(F)cc1 [Compound 190],> 6.00,> 50,< 5.00,–,–
CN1CCN(c2ccc(-c3ccc4nccc(C(=O)NCC(=O)N5CC(F)(F)C[C@H]5C#N)c4c3)cn2)CC1 [Compound 52],> 6.00,> 50,–,5.00 to 6.00,–
N#C[C@@H]1CC(F)(F)CN1C(=O)CNC(=O)c1ccnc2ccc(/C=C/c3ccc(C(F)(F)F)cc3)cc12 [Compound 51],> 6.00,> 50,–,> 6.00,–
N#C[C@@H]1CC(F)(F)CN1C(=O)CNC(=O)c1ccnc2ccc(-c3ccc(C(F)(F)F)nc3)cc12 [Compound 38],> 6.00,> 50,< 5.00,> 6.00,< 5.00
CC(C)(O)c1ccc(-c2ccc3nccc(C(=O)NCC(=O)N4CC(F)(F)C[C@H]4C#N)c3c2)cc1 [Compound 195],> 6.00,> 50,< 5.00,–,< 5.00

# Reference: US20200216417A1, “INHIBITORS OF FIBROBLAST ACTIVATION PROTEIN” (Praxis Biotech LLC, priority 2019, published 2020)
